Experimental data as given in patent US20240425523A1, “Compounds for the Degradation of EGFR Kinase” (Beigene Switzerland GMBH, priority 2023, published 2024).

Columns and labels:
Assay type in all cases: cell-based
[1] = target: T1, EGFR L858R (BaF3-L858R cells) (Homo sapiens, UniProt P00533, L858R); assay: Cell degradation of EGFR, HTRF assay, BaF3-L858R cells; conditions: 16 h treatment; for DC50: EGFR degradation; for Dmax: maximum percentage of degradation
T1 construct: host or cells: BaF3
Description: (§1) BaF3-L858R (abbv. L858R) cell were purchased from Kangyuan Bochuang Biotechnology (Beijing) Co., Ltd.
(§2) H1975-#8 and BaF3-L858R cells are treated with compounds diluted in 0.1% DMSO cell culture medium on day 2, incubate for 16 h, 37° C., 5% CO2. the final concentration of compounds in all assay is start with 10 uM, 5-fold dilution, total 8 doses were included.
(§3) After 16 h treatment, for H1975-#8 cells, add 100 ul HTRF 1× lysis buffer to each well; for BaF3-L858R cells, add 20 μl 4× lysis buffer to each well; seal the plate and incubate 1 hour at room temperature on a plate shaker; Once the cells are lysed, 16 μL of cell lysate are transferred to a PE 384-well HTRF detection plate; 4 μL of pre-mixed HTRF antibodies are added to each well; Cover the plate with a plate sealer, spin 1000 rpm for 1 min, Incubate overnight at room temperature; Read on BMG PheraStar with HTRF protocol (337 nm-665 nm-620 nm).
(§4) High control=Cell group with added DMSO and without compound, indicating microplate readings without EGFR degradation;
(§5) Dmax is the maximum percentage of inhibition (degradation).
(§6) The IC50 (DC50) value of a compound can be obtained by fitting the following equation
(§7) Y=Bottom+(TOP−Bottom)/(1+((IC50/X)^hillslope))
(§8) Wherein, X and Y are known values, and IC50, Hillslope, Top and Bottom are the parameters obtained by fitting with software. […] The experimental data were fitted by calculating and analyzing with Dotmatics data analysis software.

[2] = target: T2, EGFR-L858R/C797S (H1975-clone #8 cells) (Homo sapiens, UniProt P00533, C797S/L858R); assay: Cell degradation of EGFR, HTRF assay, H1975-clone#8 (L858R/C797S) cells; conditions: 16 h treatment; for DC50: EGFR degradation; for Dmax: maximum percentage of degradation
T2 construct: expressed in transfected cells; host or cells: H1975 (endogenous EGFR knocked out, clone #8)
Description: (§9) The EGFR over-expressed cells then underwent knockout, in which the EGFR targeting sgRNA was designed to only target the endogenous EGFR copies and preserve the exogenous EGFR copies. Followed by the knockout, the edited H1975 cells were seeded in 96 well plates at the concentration of 1 cell/cell, cultured for about 2 weeks to allow single clones formation. The formed clones were screened by DNA sequencing and whole exon sequencing analysis for the desired edition.
as §2, §3, §4, §5, §6, §7, §8

[3] = target: T3, p-EGFR L858R (BaF3-L858R cells) (Homo sapiens, UniProt P00533, L858R); assay: Cell p-EGFR inhibition assay, HTRF, BaF3-L858R cells; conditions: 16 h treatment; for Imax (%): maximum percentage of pEGFR inhibition; for IC50: pEGFR inhibition
T3 construct: host or cells: BaF3
Description: as §1
(§10) H1975-#23 and BaF3-L858R cells are treated with compounds diluted in 0.1% DMSO cell culture medium on day 2, incubate for 16 h, 37° C., 5% CO2. the final concentration of compounds in all assay is start with 10 uM, 5-fold dilution, total 8 doses were included.
as §3, with “for H1975-#23” for “for H1975-#8”, “add 50” for “add 100”
(§11) High control=Cell group with added DMSO and without compound, indicating microplate readings without p-EGFR inhibited.
(§12) Imax is the maximum percentage of inhibition.
(§13) The IC50 value of a compound can be obtained by fitting the following equation.
as §8

[4] = target: p-EGFR Del19/C797S (H1975-clone #23 cells) (Homo sapiens, UniProt P00533); assay: Cell p-EGFR inhibition assay, HTRF, H1975-clone#23 (DEL19/C797S) cells; conditions: 16 h treatment; for Imax (%): maximum percentage of pEGFR inhibition; for IC50: pEGFR inhibition
Description: as §9, with “cell/well,” for “cell/cell,”
as §10
as §3, with “for H1975-#23” for “for H1975-#8”, “add 50” for “add 100”
as §11, §12, §13, §8

DC50 [1]	Dmax [1]	DC50 [2]	Dmax [2]	Imax (%) [3]	IC50 [3]	Imax (%) [4]	IC50 [4]	Structure (SMILES)
1.6 nM	82.7%	0.97 nM	61.3%	92.6%	7.9 nM	101.1%	0.6 nM	Cc1cc2cc(n1)-c1cnn(C)c1OC[C@H]1CCC(C1)CN1/C(=N/C2=O)Nc2ccc(N3CCN(C4CCN(c5cc(F)c([C@H]6CCC(=O)NC6=O)c(F)c5)CC4)[C@@H](CO)C3)cc21 [Example 75, (R)-3-(4-(4-((R)-4-((7^1R,7^3S,E)-1^1,2^6-dimethyl-3-oxo-5^2,5^3-dihydro-1^1H,5^1H-9-oxa-4-aza-5(2,1)-benzo[d]imidazola-2(2,4)-pyridina-1(4,5)-pyrazola-7(1,3)-cyclopentanacyclononaphane-5^6-yl)-2-(hydroxymethyl)piperazin-1-yl)piperidin-1-yl)-2,6-difluorophenyl)piperidine-2,6-dione]
1.83 nM	90.9%	1.13 nM	93.9%	90.34%	< 0.128 nM	99.96%	1.44 nM	Cc1cc2cc(n1)-c1c(C)nn(C)c1OC[C@H]1CC[C@H](C1)CN1/C(=N/C2=O)Nc2ccc(N3CCN(C4CCN(c5cc(F)c([C@H]6CCC(=O)NC6=O)c(F)c5)CC4)C[C@@H]3C)cc21 [Example 195, (R)-3-(2,6-difluoro-4-(4-((S)-3-methyl-4-((7^1R,7^3S,E)-1^1,1^3,2^6-trimethyl-3-oxo-5^2,5^3-dihydro-1^1H,5^1H-9-oxa-4-aza-5(2,1)-benzo[d]imidazola-2(2,4)-pyridina-1(4,5)-pyrazola-7(1,3)-cyclopentanacyclononaphane-5^6-yl)piperazin-1-yl)piperidin-1-yl)phenyl)piperidine-2,6-dione]
1.25 nM	85.4%	0.61 nM	83.4%	98.5%	7.9 nM	99.4%	0.8 nM	Cc1cc2cc(n1)-c1cnn(C)c1OC[C@H]1CCC(C1)CN1/C(=N/C2=O)Nc2ccc(N3CCC(N4CCC(Nc5cc(F)c([C@H]6CCC(=O)NC6=O)c(F)c5)CC4)CC3)cc21 (single isomer, unassigned) [Example 116]
9.09 nM	77.4%	7.66 nM	83.8%	96.9%	19.6 nM	100.3%	2 nM	COC[C@@H]1CN(c2ccc3c(c2)N2CC4CC[C@H](COc5c(cnn5C)-c5cc(cc(C)n5)C(=O)/N=C/2N3)C4)CCN1C1CCN(c2c(F)cc(NC3CCC(=O)NC3=O)cc2F)CC1 (stereo partly drawn) [Example 93, 3-((4-(4-((S)-4-((7^1R,7^3S,E)-1^1,2^6-dimethyl-3-oxo-5^2,5^3-dihydro-1^1H,5^1H-9-oxa-4-aza-5(2,1)-benzo[d]imidazola-2(2,4)-pyridina-1(4,5)-pyrazola-7(1,3)-cyclopentanacyclononaphane-5^6-yl)-2-(methoxymethyl)piperazin-1-yl)piperidin-1-yl)-3,5-difluorophenyl)amino)piperidine-2,6-dione]
0.493 nM	90%	0.774 nM	88.4%					Cc1cc2cc(n1)-c1cnn(C)c1OC[C@H]1CC[C@H](C1)CN1/C(=N/C2=O)Nc2ccc(N3CCN([C@@H]4CCN(c5ccc(C6CCC(=O)NC6=O)nc5C)C[C@@H]4F)CC3)cc21 (stereo partly drawn) [Example 12, 3-(5-((3S,4R)-4-(4-((7^1R,7^3S,E)-1^1,2^6-dimethyl-3-oxo-5^2,5^3-dihydro-1^1H,5^1H-9-oxa-4-aza-5(2,1)-benzo[d]imidazola-2(2,4)-pyridina-1(4,5)-pyrazola-7(1,3)-cyclopentanacyclononaphane-5^6-yl)piperazin-1-yl)-3-fluoropiperidin-1-yl)-6-methylpyridin-2-yl)piperidine-2,6-dione]
20.1 nM	72.7%	16.4 nM	44%					Cc1cc2cc(n1)-c1cnn(C)c1OC[C@@H]1CC[C@@H](C1)CN1/C(=N/C2=O)Nc2ccc(N3CCN(C4CCN(c5ccc(C6CCC(=O)NC6=O)nc5C)CC4)CC3)cc21 (stereo partly shown) [Example 3, 3-(5-(4-(4-((7^1S,7^3R,E)-1^1,2^6-dimethyl-3-oxo-5^2,5^3-dihydro-1^1H,5^1H-9-oxa-4-aza-5(2,1)-benzo[d]imidazola-2(2,4)-pyridina-1(4,5)-pyrazola-7(1,3)-cyclopentanacyclononaphane-5^6-yl)piperazin-1-yl)piperidin-1-yl)-6-methylpyridin-2-yl)piperidine-2,6-dione]
0.307 nM	91.5%	1.4 nM	65.5%					Cc1cc2cc(n1)-c1cnn(C)c1OC[C@H]1CC[C@H](C1)CN1/C(=N/C2=O)Nc2ccc(N3CCN([C@@H]4CCN(c5c(C)cc(C6CCC(=O)NC6=O)nc5C)C[C@@H]4F)CC3)cc21 (stereo partly drawn) [Example 13, 3-(5-((3S,4R)-4-(4-((7^1R,7^3S,E)-1^1,2^6-dimethyl-3-oxo-5^2,5^3-dihydro-1^1H,5^1H-9-oxa-4-aza-5(2,1)-benzo[d]imidazola-2(2,4)-pyridina-1(4,5)-pyrazola-7(1,3)-cyclopentanacyclononaphane-5^6-yl)piperazin-1-yl)-3-fluoropiperidin-1-yl)-4,6-dimethylpyridin-2-yl)piperidine-2,6-dione]
1.23 nM	87.6%	2.34 nM	75.4%					CCc1nc(C2CCC(=O)NC2=O)ccc1N1CCC(N2CCN(c3ccc4c(c3)N3C[C@@H]5CC[C@H](COc6c(cnn6C)-c6cc(cc(C)n6)C(=O)/N=C/3N4)C5)CC2)CC1 (stereo partly shown) [Example 4, 3-(5-(4-(4-((7^1R,7^3S,E)-1^1,2^6-dimethyl-3-oxo-5^2,5^3-dihydro-1^1H,5^1H-9-oxa-4-aza-5(2,1)-benzo[d]imidazola-2(2,4)-pyridina-1(4,5)-pyrazola-7(1,3)-cyclopentanacyclononaphane-5^6-yl)piperazin-1-yl)piperidin-1-yl)-6-ethylpyridin-2-yl)piperidine-2,6-dione]
16.2 nM	71.9%	1.45 nM	69.3%					Cc1cc2cc(n1)-c1cnn(CCO)c1OC[C@H]1CCC(C1)CN1/C(=N/C2=O)Nc2ccc(N3CCC(N4CCC(Nc5cc(F)c([C@H]6CCC(=O)NC6=O)c(F)c5)CC4)CC3)cc21 [Example 129, (R)-3-(2,6-difluoro-4-((1′-((7^1R,7^3S,E)-1^1-(2-hydroxyethyl)-2^6-methyl-3-oxo-5^2,5^3-dihydro-1^1H,5^1H-9-oxa-4-aza-5(2,1)-benzo[d]imidazola-2(2,4)-pyridina-1(4,5)-pyrazola-7(1,3)-cyclopentanacyclononaphane-5^6-yl)-[1,4′-bipiperidin]-4-yl)amino)phenyl)piperidine-2,6-dione]
